Assay results published in patent US7138361B2, “Herbicidal heterocycles” (E. I. du Pont de Nemours and Company, priority 2000, dated 2006).

Experiments:
Assay in all cases: Test C preemergence
Format in all cases: in vivo
Nightshade [1] = conditions: Rate 500 g/ha, visual evaluation after 12 to 14 days
[2] = system: giant foxtail (Setaria faberii); conditions: for Plant response rating, Foxtail, Giant: scale 0 to 100, 0 no effect, 100 complete control; for Plant response rating (0 to 100), Foxtail, Giant: preemergence, visual evaluation after 12 to 14 days
How it was run: (§1)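 Preemergence: seeds sown then treated. Postemergence: plants 2–18 cm, 1- to 4-leaf. Both with surfactant-containing solvent formulation; visual injury scored 0–100 after 12–14 d.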

[3] = system: morningglory (Ipomoea hederacea); conditions: for Plant response rating, Morningglory: scale 0 to 100, 0 no effect, 100 complete control
How it was run: as §1

[4] = system: velvetleaf (Abutilon theophrasti); conditions: for Plant response rating, Velvetleaf: scale 0 to 100, 0 no effect, 100 complete control
How it was run: as §1

Nightshade [5] = conditions: scale 0 to 100, 0 no effect, 100 complete control
corn (Zea mays) = conditions: for Plant response rating, Corn: scale 0 to 100, 0 no effect, 100 complete control; for Plant response rating (0 to 100), Corn: preemergence, visual evaluation after 12 to 14 days
How it was run: as §1

[6] = system: common ragweed (Ambrosia elatior); conditions: for Plant response rating, Ragweed, Common: scale 0 to 100, 0 no effect, 100 complete control
How it was run: as §1

kochia (Kochia scoparia) = conditions: for Plant response rating, Kochia: scale 0 to 100, 0 no effect, 100 complete control
How it was run: as §1

[7] = system: Surinam grass (Brachiaria decumbens); conditions: for Plant response rating, Surinam grass: scale 0 to 100, 0 no effect, 100 complete control; for Plant response rating (0 to 100), Surinam grass: preemergence, visual evaluation after 12 to 14 days
How it was run: as §1

[8] = system: woolly cupgrass (Eriochloa villosa); conditions: for Plant response rating, Cupgrass, Woolly: scale 0 to 100, 0 no effect, 100 complete control; for Plant response rating (0 to 100), Cupgrass, Woolly: preemergence, visual evaluation after 12 to 14 days
How it was run: as §1

[9] = system: goosegrass (Eleusine indica); conditions: for Plant response rating, Goosegrass: scale 0 to 100, 0 no effect, 100 complete control; for Plant response rating (0 to 100), Goosegrass: preemergence, visual evaluation after 12 to 14 days
How it was run: as §1

[10] = system: cocklebur (Xanthium strumarium); conditions: for Plant response rating, Cocklebur: scale 0 to 100, 0 no effect, 100 complete control; for Plant response rating (0 to 100), Cocklebur: preemergence, visual evaluation after 12 to 14 days
How it was run: as §1

Sunflower = conditions: Rate 125 g/ha; scale 0 to 100, 0 no effect, 100 complete control
[11] = system: yellow nutsedge (Cyperus esculentus); conditions: for Plant response rating, Nutsedge: scale 0 to 100, 0 no effect, 100 complete control
How it was run: as §1

[12] = system: lambsquarters (Chenopodium album); conditions: for Plant response rating, Lambsquarters: scale 0 to 100, 0 no effect, 100 complete control
How it was run: as §1

[13] = system: johnsongrass (Sorghum halepense); conditions: for Plant response rating, Johnsongrass: scale 0 to 100, 0 no effect, 100 complete control; for Plant response rating (0 to 100), Johnsongrass: preemergence, visual evaluation after 12 to 14 days
How it was run: as §1

[14] = system: bermudagrass (Cynodon dactylon); conditions: for Plant response rating, Bermudagrass: scale 0 to 100, 0 no effect, 100 complete control; for Plant response rating (0 to 100 where 0 is no effect and 100 is complete control), Bermudagrass: preemergence, visual evaluation after 12 to 14 days
How it was run: as §1

soybean (Glycine max) = conditions: for Plant response rating, Soybean: scale 0 to 100, 0 no effect, 100 complete control
How it was run: as §1

[15] = system: pigweed (Amaranthus retroflexus); conditions: for Plant response rating, Pigweed: scale 0 to 100, 0 no effect, 100 complete control
How it was run: as §1

[16] = system: crabgrass (Digitaria sanguinalis); conditions: for Plant response rating, Crabgrass: scale 0 to 100, 0 no effect, 100 complete control; for Plant response rating (0 to 100), Crabgrass: preemergence, visual evaluation after 12 to 14 days
How it was run: as §1

[17] = preemergence, Rate 500 g/ha, visual evaluation after 12 to 14 days

## CC(C)(C)c1ccn(C2CCN(c3ccc(F)c(Br)c3)C2=O)n1 (centres unmarked) [Compound 75]
Nightshade [1]
  Plant response rating (0 to 100), Nightshade: 50
[2]; Rate 62 g/ha
  Plant response rating, Foxtail, Giant: 90
[2]; Rate 125 g/ha
  Plant response rating, Foxtail, Giant: 100
[2]; Rate 250 g/ha
  Plant response rating (0 to 100), Foxtail, Giant: 70
[2]; Rate 500 g/ha
  Plant response rating (0 to 100), Foxtail, Giant: 100
[3]; Rate 62 g/ha
  Plant response rating, Morningglory: 0
[3]; Rate 125 g/ha
  Plant response rating, Morningglory: 0
[3]; [17]
  Plant response rating (0 to 100), Morningglory: 0
[3]; preemergence, Rate 250 g/ha
  Plant response rating, Morningglory: 0
[4]; Rate 125 g/ha
  Plant response rating, Velvetleaf: 0
[4]; [17]
  Plant response rating (0 to 100), Velvetleaf: 0
[4]; preemergence, Rate 250 g/ha
  Plant response rating, Velvetleaf: 0
Nightshade [5]; Rate 62 g/ha
  Plant response rating, Nightshade: 0
Nightshade [5]; Rate 125 g/ha
  Plant response rating, Nightshade: 0
Nightshade [5]; Rate 250 g/ha
  Plant response rating, Nightshade: 0
Corn (Zea mays); Rate 62 g/ha
  Plant response rating, Corn: 0
Corn (Zea mays); Rate 125 g/ha
  Plant response rating, Corn: 0
Corn (Zea mays); Rate 250 g/ha
  Plant response rating (0 to 100), Corn: 0
Corn (Zea mays); Rate 500 g/ha
  Plant response rating (0 to 100), Corn: 0
[6]; Rate 125 g/ha
  Plant response rating, Ragweed, Common: 0
[6]; [17]
  Plant response rating (0 to 100), Ragweed, Common: 60
[6]; preemergence, Rate 250 g/ha
  Plant response rating, Ragweed, Common: 0
Kochia (Kochia scoparia); Rate 62 g/ha
  Plant response rating, Kochia: 100
Kochia (Kochia scoparia); Rate 125 g/ha
  Plant response rating, Kochia: 100
Kochia (Kochia scoparia); preemergence, Rate 250 g/ha, visual evaluation after 12 to 14 days
  Plant response rating (0 to 100), Kochia: 100
[7]; Rate 62 g/ha
  Plant response rating, Surinam grass: 10
[7]; Rate 125 g/ha
  Plant response rating, Surinam grass: 40
[7]; Rate 250 g/ha
  Plant response rating (0 to 100), Surinam grass: 60
[7]; Rate 500 g/ha
  Plant response rating (0 to 100), Surinam grass: 60
[8]; Rate 62 g/ha
  Plant response rating, Cupgrass, Woolly: 60
[8]; Rate 125 g/ha
  Plant response rating, Cupgrass, Woolly: 80
[8]; Rate 250 g/ha
  Plant response rating (0 to 100), Cupgrass, Woolly: 100
[8]; Rate 500 g/ha
  Plant response rating (0 to 100), Cupgrass, Woolly: 100
[9]; Rate 62 g/ha
  Plant response rating, Goosegrass: 90
[9]; Rate 125 g/ha
  Plant response rating, Goosegrass: 100
[9]; Rate 250 g/ha
  Plant response rating (0 to 100), Goosegrass: 100
[9]; Rate 500 g/ha
  Plant response rating (0 to 100), Goosegrass: 100
[10]; Rate 62 g/ha
  Plant response rating, Cocklebur: 0
[10]; Rate 125 g/ha
  Plant response rating, Cocklebur: 0
[10]; Rate 250 g/ha
  Plant response rating (0 to 100), Cocklebur: 0
[10]; Rate 500 g/ha
  Plant response rating (0 to 100), Cocklebur: 0
Sunflower
  Plant response rating, Sunflower: 0
[11]; Rate 62 g/ha
  Plant response rating, Nutsedge: 0
[11]; Rate 125 g/ha
  Plant response rating, Nutsedge: 0
[11]; [17]
  Plant response rating (0 to 100), Nutsedge: 50
[11]; preemergence, Rate 250 g/ha
  Plant response rating, Nutsedge: 50
[12]; Rate 62 g/ha
  Plant response rating, Lambsquarters: 100
[12]; Rate 125 g/ha
  Plant response rating, Lambsquarters: 100
[12]; [17]
  Plant response rating (0 to 100), Lambsquarters: 100
[12]; preemergence, Rate 250 g/ha
  Plant response rating, Lambsquarters: 100
[13]; Rate 62 g/ha
  Plant response rating, Johnsongrass: 0
[13]; Rate 125 g/ha
  Plant response rating, Johnsongrass: 0
[13]; Rate 250 g/ha
  Plant response rating (0 to 100), Johnsongrass: 30
[13]; Rate 500 g/ha
  Plant response rating (0 to 100), Johnsongrass: 30
[14]; Rate 62 g/ha
  Plant response rating, Bermudagrass: 100
[14]; Rate 125 g/ha
  Plant response rating, Bermudagrass: 100
[14]; Rate 250 g/ha
  Plant response rating (0 to 100 where 0 is no effect and 100 is complete control), Bermudagrass: 100
[14]; Rate 500 g/ha
  Plant response rating (0 to 100 where 0 is no effect and 100 is complete control), Bermudagrass: 100
Soybean (Glycine max); Rate 125 g/ha
  Plant response rating, Soybean: 0
Soybean (Glycine max); [17]
  Plant response rating (0 to 100), Soybean: 50
Soybean (Glycine max); preemergence, Rate 250 g/ha
  Plant response rating, Soybean: 0
[15]; Rate 125 g/ha
  Plant response rating, Pigweed: 100
[15]; [17]
  Plant response rating (0 to 100), Pigweed: 100
[15]; preemergence, Rate 250 g/ha
  Plant response rating, Pigweed: 100
[16]; Rate 62 g/ha
  Plant response rating, Crabgrass: 90
[16]; Rate 125 g/ha
  Plant response rating, Crabgrass: 100
[16]; Rate 250 g/ha
  Plant response rating (0 to 100), Crabgrass: 100
[16]; Rate 500 g/ha
  Plant response rating (0 to 100), Crabgrass: 100
